Reference: patent publication US20090105305A1, “Therapeutic Agents - 550” (AstraZeneca AB, priority 2006, published 2009)

Target: T1, human Fatty Acid Synthase (Homo sapiens, UniProt P49327)
T1 construct: made in house
Assay: Human FAS enzyme assay (decrease in NADPH fluorescence)
Assay type: biochemical
Details: for IC50s in the range of about 0.001 μM to about 30 μM: compounds excluded from the claims by proviso; for inhibition at 100 µM: % inhibition at a concentration of 100 micromolar
Procedure, shortened: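 Readout: decrease in NADPH fluorescence (340 nm ex, 460 nm em) after 60 min at RT, background-subtracted against a read taken before substrate. Substrate mix contained 500 μM malonyl-CoA and 150 μM acetyl-CoA. It was added after 15 min enzyme (0.4 μg in-house human FAS)–compound–NADPH preincubation in Tris pH 7.5 buffer; % inhibition was fitted to IC50.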

T1 sequence (P49327 whole entry): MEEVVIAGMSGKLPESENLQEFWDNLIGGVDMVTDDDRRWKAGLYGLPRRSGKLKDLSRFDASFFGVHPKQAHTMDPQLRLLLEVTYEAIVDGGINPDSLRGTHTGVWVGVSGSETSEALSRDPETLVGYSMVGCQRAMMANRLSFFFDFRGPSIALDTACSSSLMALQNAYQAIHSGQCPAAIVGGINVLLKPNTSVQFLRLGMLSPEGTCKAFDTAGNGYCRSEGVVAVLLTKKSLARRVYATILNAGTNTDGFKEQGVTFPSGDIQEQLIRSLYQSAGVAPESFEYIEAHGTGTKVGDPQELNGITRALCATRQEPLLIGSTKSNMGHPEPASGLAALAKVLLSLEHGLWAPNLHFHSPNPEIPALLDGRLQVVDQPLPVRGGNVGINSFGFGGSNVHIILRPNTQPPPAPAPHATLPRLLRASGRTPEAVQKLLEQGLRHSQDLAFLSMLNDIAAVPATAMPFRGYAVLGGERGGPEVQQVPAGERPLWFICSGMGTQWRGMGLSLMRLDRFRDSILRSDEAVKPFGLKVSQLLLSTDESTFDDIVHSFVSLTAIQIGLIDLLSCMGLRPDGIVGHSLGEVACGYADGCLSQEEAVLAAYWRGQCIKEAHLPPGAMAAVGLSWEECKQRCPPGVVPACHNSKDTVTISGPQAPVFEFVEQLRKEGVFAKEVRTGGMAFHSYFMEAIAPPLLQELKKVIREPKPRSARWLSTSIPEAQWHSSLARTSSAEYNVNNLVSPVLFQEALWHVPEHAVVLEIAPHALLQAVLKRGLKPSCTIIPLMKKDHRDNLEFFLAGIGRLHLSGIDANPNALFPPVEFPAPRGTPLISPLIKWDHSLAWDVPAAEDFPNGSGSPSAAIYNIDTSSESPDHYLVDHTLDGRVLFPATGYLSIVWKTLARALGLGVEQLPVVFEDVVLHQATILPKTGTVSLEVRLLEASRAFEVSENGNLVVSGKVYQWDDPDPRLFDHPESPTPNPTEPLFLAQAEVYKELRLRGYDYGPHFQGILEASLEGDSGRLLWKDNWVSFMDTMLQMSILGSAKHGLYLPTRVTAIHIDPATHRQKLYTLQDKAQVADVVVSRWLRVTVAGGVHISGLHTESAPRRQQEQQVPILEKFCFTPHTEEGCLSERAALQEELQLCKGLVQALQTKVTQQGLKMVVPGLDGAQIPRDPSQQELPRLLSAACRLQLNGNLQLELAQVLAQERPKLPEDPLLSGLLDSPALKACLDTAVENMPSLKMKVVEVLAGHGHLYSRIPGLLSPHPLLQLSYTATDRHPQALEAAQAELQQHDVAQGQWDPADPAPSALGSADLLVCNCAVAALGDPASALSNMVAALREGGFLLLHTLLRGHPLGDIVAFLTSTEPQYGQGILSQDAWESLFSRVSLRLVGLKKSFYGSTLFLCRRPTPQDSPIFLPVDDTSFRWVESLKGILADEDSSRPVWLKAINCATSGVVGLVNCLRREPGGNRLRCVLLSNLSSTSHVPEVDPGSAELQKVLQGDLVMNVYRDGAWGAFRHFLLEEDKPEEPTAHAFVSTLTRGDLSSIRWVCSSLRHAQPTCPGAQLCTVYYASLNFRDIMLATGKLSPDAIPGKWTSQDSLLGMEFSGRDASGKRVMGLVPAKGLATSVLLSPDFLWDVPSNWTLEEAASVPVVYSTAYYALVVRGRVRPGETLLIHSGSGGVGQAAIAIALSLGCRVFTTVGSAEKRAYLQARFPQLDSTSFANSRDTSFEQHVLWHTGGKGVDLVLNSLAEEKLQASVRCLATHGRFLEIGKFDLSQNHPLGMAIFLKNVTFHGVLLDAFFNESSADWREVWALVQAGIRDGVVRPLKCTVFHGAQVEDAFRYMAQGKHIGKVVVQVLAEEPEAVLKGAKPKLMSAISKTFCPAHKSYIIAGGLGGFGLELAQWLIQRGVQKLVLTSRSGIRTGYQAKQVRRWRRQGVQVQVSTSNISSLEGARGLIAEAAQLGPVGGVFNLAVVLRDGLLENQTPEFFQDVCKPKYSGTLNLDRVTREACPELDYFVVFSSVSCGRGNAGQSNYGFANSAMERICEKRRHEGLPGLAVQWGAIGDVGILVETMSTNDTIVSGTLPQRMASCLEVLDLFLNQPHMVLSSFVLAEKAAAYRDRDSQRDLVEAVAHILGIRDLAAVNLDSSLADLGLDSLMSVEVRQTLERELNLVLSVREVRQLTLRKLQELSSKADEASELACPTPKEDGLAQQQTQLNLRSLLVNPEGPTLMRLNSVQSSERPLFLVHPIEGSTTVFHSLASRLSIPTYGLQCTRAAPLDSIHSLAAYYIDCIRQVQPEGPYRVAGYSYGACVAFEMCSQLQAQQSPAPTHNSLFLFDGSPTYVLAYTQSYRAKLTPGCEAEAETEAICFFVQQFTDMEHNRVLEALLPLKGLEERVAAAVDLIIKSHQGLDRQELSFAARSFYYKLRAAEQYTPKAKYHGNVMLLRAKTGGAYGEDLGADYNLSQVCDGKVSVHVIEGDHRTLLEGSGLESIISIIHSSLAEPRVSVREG

Which “IC50s in the range of about 0.001 μM to about 30 μM” value (from here on “IC50s in the range”) does the source give for `CS(=O)(=O)Cc1ccc(C(=O)N2CCC(c3ccc(C#N)cc3)CC2)cc1NS(C)(=O)=O` [N-[5-[4-(4-cyanophenyl)piperidine-1-carbonyl]-2-(methylsulfonylmethyl)phenyl]methanesulfonamide] here?
Its value is “do not have IC50s in the range of about 0.001 μM to about 30 μM”.

`Cc1ccc(C(=O)N2CCC(c3ccc(C#N)cc3)CC2)cc1NS(=O)(=O)c1ccccc1` [Example 10, N-[5-[4-(4-cyanophenyl)piperidine-1-carbonyl]-2-methyl-phenyl]benzenesulfonamide] was tested. Which inhibition at 100 µM did it give?
The inhibition at 100 µM was 78%.

Which inhibition at 100 µM does the source give for `Cc1ccc(C(=O)N2CCC(c3ccc(Oc4ncccn4)cc3)CC2)cc1NS(C)(=O)=O` [Example 190, N-[2-methyl-5-[4-(4-pyrimidin-2-yloxyphenyl)piperidine-1-carbonyl]phenyl]methanesulfonamide] here?
Its inhibition at 100 µM is 88%.

How did the inhibition at 100 µM turn out when `Cc1ccc(Oc2ccc(C3CCN(C(=O)c4ccc(C)c(NS(C)(=O)=O)c4)CC3)cc2)nn1` [Example 229, N-[2-methyl-5-[4-[4-(6-methylpyridazin-3-yl)oxyphenyl]piperidine-1-carbonyl]phenyl]methanesulfonamide] was run?
The inhibition at 100 µM was 80.2%.

With `Cc1ccc(C(=O)N2CCC(c3ccc(C#N)cc3)CC2)cc1NS(=O)(=O)Cc1ccccc1F` [Example 26, N-[5-[4-(4-cyanophenyl)piperidine-1-carbonyl]-2-methyl-phenyl]-1-(2-fluorophenyl)methanesulfonamide] as the compound, how does the inhibition at 100 µM read?
Its inhibition at 100 µM is 94%.

With `Cc1ccc(C(=O)N2CCC(c3ccc(C#N)cc3)CC2)cc1NS(=O)(=O)c1ccccc1C(=O)N(C)C` [Example 206, 2-[[5-[4-(4-cyanophenyl)piperidine-1-carbonyl]-2-methylphenyl]sulfamoyl]-N,N-dimethylbenzamide] as the compound, how does the inhibition at 100 µM read?
Its inhibition at 100 µM is 76%.

Which inhibition at 100 µM does the source give for `Cc1ccc(C(=O)N2CCC(c3ccc(C#N)cc3)CC2)cc1NS(=O)(=O)CCN` [Example 72, 2-amino-N-[5-[4-(4-cyanophenyl)piperidine-1-carbonyl]-2-methyl-phenyl]ethanesulfonamide] here?
The inhibition at 100 µM was 93%.

Which “IC50s in the range” value does the source give for `Cc1ccc(C(=O)N2CCC(c3cccc(-c4ccccc4)c3)CC2)cc1NS(C)(=O)=O` [N-[2-methyl-5-[4-(3-phenylphenyl)piperidine-1-carbonyl]phenyl]methanesulfonamide] here?
Its value is “do not have IC50s in the range of about 0.001 μM to about 30 μM”.

For `CNS(=O)(=O)c1ccc(C2CCN(C(=O)c3ccc(C)c(NS(C)(=O)=O)c3)CC2)cc1` [Example 183, 4-[1-(3-methanesulfonamido-4-methylbenzoyl)piperidin-4-yl]-N-methylbenzenesulfonamide], which inhibition at 100 µM is on record?
The inhibition at 100 µM was 90%.

For `COc1ccc(C2CCN(C(=O)c3ccc(C)c(NS(C)(=O)=O)c3)CC2)cc1` [Example 162, N-[5-[4-(4-methoxyphenyl)piperidine-1-carbonyl]-2-methylphenyl]methanesulfonamide], which inhibition at 100 µM is on record?
Its inhibition at 100 µM is 86%.

For `Cc1ccc(C(=O)N2CCC(c3ccc(C#N)cc3)CC2)cc1NS(=O)(=O)CCCN1C(=O)c2ccccc2C1=O` [Example 134, N-[5-[4-(4-cyanophenyl)piperidine-1-carbonyl]-2-methyl-phenyl]-3-(1,3-dioxoisoindol-2-yl)propane-1-sulfonamide], which inhibition at 100 µM is on record?
Its inhibition at 100 µM is 97%.

Which “IC50s in the range” value does the source give for `Cc1ccc(C(=O)N2CCC(c3cccc(C#N)c3)CC2)cc1NS(C)(=O)=O` [N-[5-[4-(3-cyanophenyl)piperidine-1-carbonyl]-2-methylphenyl]methanesulfonamide] here?
Its value is “do not have IC50s in the range of about 0.001 μM to about 30 μM”.

How did the inhibition at 100 µM turn out when `Cc1ccc(C(=O)N2CCC(c3ccc(C#N)cc3)CC2)cc1NS(=O)(=O)c1ccc2c(c1)CC(=O)N2` [Example 129, N-[5-[4-(4-cyanophenyl)piperidine-1-carbonyl]-2-methyl-phenyl]-2-oxo-1,3-dihydroindole-5-sulfonamide] was run?
Its inhibition at 100 µM is 95%.

`N#Cc1ccc(C2CCN(C(=O)c3ccc(Cl)c(NS(=O)(=O)c4ccc(Cl)cc4)c3)CC2)cc1` [Example 192, 4-chloro-N-[2-chloro-5-[4-(4-cyanophenyl)piperidine-1-carbonyl]phenyl]benzene-sulfonamide] was tested. Which inhibition at 100 µM did it give?
The inhibition at 100 µM was 67%.

For `Cc1ccc(NS(=O)(=O)Cc2ccc(F)cc2F)cc1C(=O)N1CCC(c2ccc(C#N)cc2)CC1` [Example 56, N-[3-[4-(4-cyanophenyl)piperidine-1-carbonyl]-4-methyl-phenyl]-1-(2,4-difluorophenyl)methanesulfonamide], which inhibition at 100 µM is on record?
The inhibition at 100 µM was 89%.

`Cc1cc(C)c(C(=O)N2CCC(c3ccc(C#N)cc3)CC2)cc1NS(=O)(=O)Cc1ccccc1` [Example 29, N-[5-[4-(4-cyanophenyl)piperidine-1-carbonyl]-2,4-dimethyl-phenyl]-1-phenyl-methanesulfonamide] was tested. Which inhibition at 100 µM did it give?
The inhibition at 100 µM was 93%.

Which inhibition at 100 µM does the source give for `Cc1ccc(C(=O)N2CCC(c3ccc(C#N)cc3)CC2)cc1NS(=O)(=O)CCCNC(=O)c1ccccc1` [Example 133, N-[3-[[5-[4-(4-cyanophenyl)piperidine-1-carbonyl]-2-methyl-phenyl]sulfamoyl]propyl]benzamide] here?
Its inhibition at 100 µM is 91%.

`Cc1ccc(C(=O)N2CCC(c3ccc(C#N)cc3)CC2)cc1NS(=O)(=O)c1cnn(C)c1` [Example 145, N-[5-[4-(4-cyanophenyl)piperidine-1-carbonyl]-2-methyl-phenyl]-1-methyl-pyrazole-4-sulfonamide] was tested. Which inhibition at 100 µM did it give?
Its inhibition at 100 µM is 97%.

With `Cc1cc(C)c(C(=O)N2CCC(c3ccc(C#N)cc3)CC2)cc1NS(C)(=O)=O` [Example 28, N-[5-[4-(4-cyanophenyl)piperidine-1-carbonyl]-2,4-dimethyl-phenyl]methanesulfonamide] as the compound, how does the inhibition at 100 µM read?
Its inhibition at 100 µM is 93%.

`Cc1ccc(C(=O)N2CCC(c3ccc(-c4cnccn4)cc3)CC2)cc1NS(C)(=O)=O` [Example 174, N-[2-methyl-5-[4-(4-pyrazin-2-ylphenyl)piperidine-1-carbonyl]phenyl]methanesulfonamide] was tested. Which inhibition at 100 µM did it give?
The inhibition at 100 µM was 92%.

With `C[S+]([O-])c1ccc(C(=O)N2CCC(c3ccc(C#N)cc3)CC2)cc1NS(C)(=O)=O` (stereo not shown) [N-[5-[4-(4-cyanophenyl)piperidine-1-carbonyl]-2-methylsulfinylphenyl]methanesulfonamide] as the compound, how does the “IC50s in the range” value read?
The value was “do not have IC50s in the range of about 0.001 μM to about 30 μM”.

`Cc1ccc(C(=O)N2CCC(O)(c3ccccc3F)CC2)cc1NS(C)(=O)=O` [N-[5-[4-(2-fluorophenyl)-4-hydroxypiperidine-1-carbonyl]-2-methylphenyl]methanesulfonamide] was tested. Which “IC50s in the range” value did it give?
The value was “do not have IC50s in the range of about 0.001 μM to about 30 μM”.

How did the inhibition at 100 µM turn out when `Cc1ccc(NS(=O)(=O)CCc2ccccc2)cc1C(=O)N1CCC(c2ccc(C#N)cc2)CC1` [Example 58, N-[3-[4-(4-cyanophenyl)piperidine-1-carbonyl]-4-methyl-phenyl]-2-phenyl-ethanesulfonamide] was run?
Its inhibition at 100 µM is 92%.

How did the inhibition at 100 µM turn out when `Cc1ccc(C(=O)N2CCC(c3ccc(C#N)cc3)CC2)cc1NS(=O)(=O)CCCO` [Example 205, N-[5-[4-(4-cyanophenyl)piperidine-1-carbonyl]-2-methylphenyl]-3-hydroxypropane-1-sulfonamide] was run?
Its inhibition at 100 µM is 75%.

For `Cc1ccc(C(=O)N2CCC(c3ccc(C#N)cc3)CC2)cc1NS(=O)(=O)C(C)(C)Cl` [Example 224, 2-chloro-N-[5-[4-(4-cyanophenyl)piperidine-1-carbonyl]-2-methylphenyl]propane-2-sulfonamide], which inhibition at 100 µM is on record?
Its inhibition at 100 µM is 108%.
